Assay results as given in patent US5780433A (priority 1996, dated 1998).
Several values for one entry are separate records, joined by “and”; a condition that tells them apart may be missing. Identical values can stand only once. Entries after “also recorded” stand apart in the source; their conditions may differ.

Experiments:
[1] = tested on: nicotine-stimulated norepinephrine release, hippocampal synaptosomes; assay type: cell-based, rat
[2] = tested on: potassium-stimulated dopamine release; assay type: cell-based, rat
[3] = target: α3β2 nAChRs expressed in Xenopus oocytes (Rattus norvegicus, UniProt P04757+P12390); settings: read-out: IC50, block of α3β2 nAChRs; cited from earlier work
Sequence of α3β2 nAChRs expressed in Xenopus oocytes (P04757 26-499 limits assumed): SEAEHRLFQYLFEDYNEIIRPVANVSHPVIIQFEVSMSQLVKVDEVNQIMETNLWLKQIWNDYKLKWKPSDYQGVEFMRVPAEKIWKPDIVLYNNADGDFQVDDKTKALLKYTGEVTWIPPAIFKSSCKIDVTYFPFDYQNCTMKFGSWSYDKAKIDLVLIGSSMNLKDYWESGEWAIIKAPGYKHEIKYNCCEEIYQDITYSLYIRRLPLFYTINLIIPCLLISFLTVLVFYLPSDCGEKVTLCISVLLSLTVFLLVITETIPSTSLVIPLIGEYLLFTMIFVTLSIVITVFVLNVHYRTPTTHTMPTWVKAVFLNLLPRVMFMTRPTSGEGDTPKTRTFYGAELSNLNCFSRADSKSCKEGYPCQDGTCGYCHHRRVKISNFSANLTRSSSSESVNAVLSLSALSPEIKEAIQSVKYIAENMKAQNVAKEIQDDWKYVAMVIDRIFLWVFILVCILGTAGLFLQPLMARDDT
Sequence of α3β2 nAChRs expressed in Xenopus oocytes (P12390 25-500 limits assumed): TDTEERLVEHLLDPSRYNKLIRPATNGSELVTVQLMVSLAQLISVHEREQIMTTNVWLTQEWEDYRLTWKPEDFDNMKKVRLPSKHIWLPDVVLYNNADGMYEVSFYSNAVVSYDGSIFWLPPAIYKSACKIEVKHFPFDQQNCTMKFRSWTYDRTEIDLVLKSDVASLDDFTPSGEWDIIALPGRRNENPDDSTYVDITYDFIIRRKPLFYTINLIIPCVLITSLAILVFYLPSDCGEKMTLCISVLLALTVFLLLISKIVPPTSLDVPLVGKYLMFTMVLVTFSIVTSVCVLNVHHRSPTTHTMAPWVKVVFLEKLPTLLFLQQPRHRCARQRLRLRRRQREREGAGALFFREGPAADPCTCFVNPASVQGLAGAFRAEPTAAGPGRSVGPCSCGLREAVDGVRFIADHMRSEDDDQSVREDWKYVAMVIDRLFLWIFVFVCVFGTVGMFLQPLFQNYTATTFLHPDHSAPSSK

[4] = tested on: nicotine-stimulated [3H]-dopamine release from rat striatal synaptosomes; assay type: cell-based
[5] = tested on: other nAChR subunit combinations (α7, α4β2, α2β2, α3β4, α1β1δγ, α4β4); settings: cited from earlier work
[6] = tested on: nicotine-stimulated norepinephrine release, hippocampal synaptosomes; settings: cited from earlier work
[7] = tested on: norepinephrine release, hippocampal slice preparations; settings: cited from earlier work
[8] = tested on: nicotine-stimulated [3H]-dopamine release from rat striatal synaptosomes; settings: read-out: EC50, increase of [3H]-dopamine release; cited from earlier work

α-conotoxin MII
block of nicotine-stimulated norepinephrine release [1]: significant block
block of nicotine-stimulated synaptosomal norepinephrine release [1]: do not block
effect on potassium-stimulated dopamine release [2]: no effect
IC50 [3]: 0.5 nM
block of nicotine-evoked [3H]-dopamine release [4]: significantly blocked
block of nicotine-stimulated [3H]-dopamine release [4]: 33% and 34% and 44% and 50%
block of nicotine-stimulated [3H]-dopamine release (words) [4]: nonsignificant trend toward block
block of nicotine-stimulated dopamine release [4]: blocks a fraction; also recorded: blocks a part but not all
affinities for other nAChR subunit combinations relative to α3β2 [5]: two to four orders-of-magnitude higher
discrimination between the α3/β2 and α3/β4 interface [5]: four orders-of-magnitude

NC1=N[C@H](O)[C@H]2[C@H]3O[C@]4(O)O[C@@H]([C@@H](O)[C@@]2(N1)[C@@H]4O)[C@]3(O)CO [tetrodotoxin]
effect on nicotine-stimulated synaptosomal release of norepinephrine [6]: not affected
block of nicotine-stimulated norepinephrine release from hippocampal slices [7]: majority

α-conotoxin ImI [reference compound]
block of nicotine-stimulated dopamine release [4]: do not block; also recorded: no effect

CN1CCCC1c1cccnc1.O=C(O)C(O)C(O)C(=O)O (single isomer, unassigned; (-)) [nicotine, (-)Nicotine hydrogen tartrate]
EC50 [8]: 160 nM
EC50 [6]: 6500 nM
norepinephrine release over baseline [7]: ~ 700%

CNC1(C)C2CCC(C2)C1(C)C (centres unmarked) [mecamylamine, reference compound]
block of nicotine-stimulated dopamine release [4]: fully blocked
